Test system: Bovine cardiac myofibrils
Experiment: In vitro model of dose-dependent myofibril ATPase modulation (AC1.4, pyruvate kinase/lactate dehydrogenase-coupled ATPase assay at pCa25)
Format: biochemical
Conditions: concentration at which ATPase activity was 1.4-fold higher than the bottom of the dose curve, mean of a minimum of two independent tests
In short: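 Absorbance at 340 nm tracked ATP hydrolysis through pyruvate kinase/lactate dehydrogenase coupling (0.5 mM NADH, 1.5 mM PEP). Myofibrils from detergent-homogenized bovine heart, 1 mM ATP, pH 6.80, EGTA/CaCl2 buffering. Dose-response curves fitted with a four-parameter Hill equation.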

Compound	AC1.4 [µM]
N#CC1CN(S(=O)(=O)N2CCC[C@H](C(=O)N3CCC[C@@H]3C(=O)NCc3cc(C(F)(F)F)ccc3F)C2)C1 [Example 674, 1-(((3S)-1-((3-cyano-1-azetidinyl)sulfonyl)-3-piperidinyl)carbonyl)-N-(2-fluoro-5-(trifluoromethyl)benzyl)-D-prolinamide]	4.9025
CS(=O)(=O)c1cc(C(=O)N2CCC[C@@H]2C(=O)N[C@@H](c2ccc(C(F)(F)F)cc2F)C2CC2)ccn1 [Example 675, N-((R)-cyclopropyl(2-fluoro-4-(trifluoromethyl)phenyl)methyl)-1-((2-(methylsulfonyl)-4-pyridinyl)carbonyl)-D-prolinamide]	4.9395
CS(=O)(=O)c1cccc(C(=O)N2[C@@H](C(=O)N[C@@H](c3ccc(C(F)(F)F)cc3F)C3(F)COC3)C[C@H]3C[C@H]32)c1 [Example 676, (1R,3R,5R)-N-((S)-(3-fluoro-3-oxetanyl)(2-fluoro-4-(trifluoromethyl)phenyl)methyl)-2-(3-(methylsulfonyl)benzoyl)-2-azabicyclo[3.1.0]hexane-3-carboxamide]	4.59
CN(C)S(=O)(=O)c1cccc(C(=O)N2CCCCC2C(=O)NCc2ccc(C(F)(F)F)cc2)c1 (stereo not drawn) [Example 677, 1-(3-(N,N-dimethylsulfamoyl)benzoyl)-N-(4-(trifluoromethyl)benzyl)piperidine-2-carboxamide]	4.987
CN(C)S(=O)(=O)c1cccc(C(=O)N2CCC[C@@H]2C(=O)N[C@H](CO)c2ccc(C(F)(F)F)cc2)c1 [Example 678, 1-(3-(dimethylsulfamoyl)benzoyl)-N-((1S)-2-hydroxy-1-(4-(trifluoromethyl)phenyl)ethyl)-D-prolinamide]	4.993
O=C(NCc1ccc(C(F)(F)F)cc1)[C@H]1CCCN1C(=O)[C@H]1CCCN(S(=O)(=O)N2CC(n3cncn3)C2)C1 [Example 679, 1-(((3S)-1-((3-(1H-1,2,4-triazol-1-yl)-1-azetidinyl)sulfonyl)-3-piperidinyl)carbonyl)-N-(4-(trifluoromethyl)benzyl)-D-prolinamide]	5.023
O=C(N[C@@H](c1ccc(C(F)(F)F)cc1F)C1CC1)[C@H]1C[C@H]2C[C@H]2N1C(=O)c1cncc(C(F)(F)F)c1 [Example 680, (1R,3R,5R)-N-((R)-cyclopropyl(2-fluoro-4-(trifluoromethyl)phenyl)methyl)-2-((5-(trifluoromethyl)-3-pyridinyl)carbonyl)-2-azabicyclo[3.1.0]hexane-3-carboxamide]	5.0333
COc1cc(F)cc(CNC(=O)[C@H]2CCCN2C(=O)[C@H]2CCCN(S(=O)(=O)N3CC(C#N)C3)C2)c1 [Example 681, 1-(((3S)-1-((3-cyano-1-azetidinyl)sulfonyl)-3-piperidinyl)carbonyl)-N-(3-fluoro-5-methoxybenzyl)-D-prolinamide]	5.0425
CS(=O)(=O)c1cncc(C(=O)N2C[C@H](C(F)F)C[C@@H]2C(=O)N[C@@H](c2ccc(C(F)(F)F)cc2F)C2CC2)c1 [Example 682, (4R)-N-((R)-cyclopropyl(2-fluoro-4-(trifluoromethyl)phenyl)methyl)-4-(difluoromethyl)-1-((5-(methylsulfonyl)-3-pyridinyl)carbonyl)-D-prolinamide]	4.606
CC1(O)CN(S(=O)(=O)N2CCC[C@H](C(=O)N3C[C@@H](F)C[C@@H]3C(=O)NCc3ccc(C(F)(F)F)cc3)C2)C1 [Example 683, (4S)-4-fluoro-1-(((3S)-1-((3-hydroxy-3-methyl-1-azetidinyl)sulfonyl)-3-piperidinyl)carbonyl)-N-(4-(trifluoromethyl)benzyl)-D-prolinamide]	5.096
N#CC1CN(S(=O)(=O)N2CCC[C@H](C(=O)N3CCC[C@@H]3C(=O)NCc3ccccc3F)C2)C1 [Example 684, 1-(((3S)-1-((3-cyano-1-azetidinyl)sulfonyl)-3-piperidinyl)carbonyl)-N-(2-fluorobenzyl)-D-prolinamide]	5.1985
CS(=O)(=O)c1cccc(C(=O)N2[C@@H](C(=O)NC(c3ccc(C(F)(F)F)cc3F)C3CNC(=O)C3)C[C@H]3C[C@H]32)c1 (stereo partly drawn) [Example 685, (1R,3R,5R)-N-((2-fluoro-4-(trifluoromethyl)phenyl)(5-oxopyrrolidin-3-yl)methyl)-2-(3-(methylsulfonyl)benzoyl)-2-azabicyclo[3.1.0]hexane-3-carboxamide]	5.246
O=C(N[C@@H](c1ccc(C(F)(F)F)c(F)c1)C1CC1)[C@H]1C[C@H]2C[C@H]2N1C(=O)c1ccnc(S(=O)(=O)C2CC2)c1 [Example 686, (1R,3R,5R)-N-((R)-cyclopropyl(3-fluoro-4-(trifluoromethyl)phenyl)methyl)-2-((2-(cyclopropylsulfonyl)-4-pyridinyl)carbonyl)-2-azabicyclo[3.1.0]hexane-3-carboxamide]	5.284
NS(=O)(=O)c1ccc(Cl)c(C(=O)N2CCC[C@@H]2C(=O)N[C@@H](c2ccc(C(F)(F)F)cc2F)C2CC2)c1 [Example 687, 1-(2-chloro-5-sulfamoylbenzoyl)-N-((R)-cyclopropyl(2-fluoro-4-(trifluoromethyl)phenyl)methyl)-D-prolinamide]	5.299
Cc1noc(C2CN(S(=O)(=O)N3CCC[C@H](C(=O)N4CCC[C@@H]4C(=O)NCc4ccc(C(F)(F)F)cc4)C3)C2)n1 [Example 688, 1-(((3S)-1-((3-(3-methyl-1,2,4-oxadiazol-5-yl)-1-azetidinyl)sulfonyl)-3-piperidinyl)carbonyl)-N-(4-(trifluoromethyl)benzyl)-D-prolinamide]	5.317
N#CC1CN(S(=O)(=O)c2cccc(C(=O)N3CCC[C@@H]3C(=O)NCCn3ccc(C(F)(F)F)n3)c2)C1 [Example 689, 1-((3-((3-cyano-1-azetidinyl)sulfonyl)phenyl)carbonyl)-N-(2-(3-(trifluoromethyl)-1H-pyrazol-1-yl)ethyl)-D-prolinamide]	5.334
CS(=O)(=O)c1cc(C(=O)N2CCC[C@@H]2C(=O)N[C@@H](c2ccc(C(F)(F)F)cc2F)C2CC2)ccc1F [Example 690, N-((R)-cyclopropyl(2-fluoro-4-(trifluoromethyl)phenyl)methyl)-1-(4-fluoro-3-(methylsulfonyl)benzoyl)-D-prolinamide]	5.354
CC1(c2cccc(C(=O)N3CCC[C@@H]3C(=O)N[C@@H](c3ccc(C(F)(F)F)cc3F)C3CC3)c2)COC1 [Example 691, N-((R)-cyclopropyl(2-fluoro-4-(trifluoromethyl)phenyl)methyl)-1-(3-(3-methyl-3-oxetanyl)benzoyl)-D-prolinamide]	5.3575
COCC(=O)NC1CN(S(=O)(=O)N2CCC[C@H](C(=O)N3CCC[C@@H]3C(=O)NCc3ccc(C(F)(F)F)cc3)C2)C1 [Example 692, 1-(((3S)-1-((3-((methoxyacetyl)amino)-1-azetidinyl)sulfonyl)-3-piperidinyl)carbonyl)-N-(4-(trifluoromethyl)benzyl)-D-prolinamide]	5.379
CN1C[C@H](C(=O)N[C@@H](c2ccc(C(F)(F)F)cc2F)C2CC2)N(C(=O)c2cccc(S(C)(=O)=O)c2)C1=O [Example 693, (4R)-N-((R)-cyclopropyl(2-fluoro-4-(trifluoromethyl)phenyl)methyl)-1-methyl-3-(3-(methylsulfonyl)benzoyl)-2-oxo-4-imidazolidinecarboxamide]	5.425
N#CC1CN(S(=O)(=O)N2CCC[C@H](C(=O)N3CCC[C@H]3C(=O)NCc3cc(F)cc(F)c3)C2)C1 [Example 694, 1-(((3S)-1-((3-cyano-1-azetidinyl)sulfonyl)-3-piperidinyl)carbonyl)-N-(3,5-difluorobenzyl)-L-prolinamide]	5.48
Cc1cncc(C(=O)N2[C@@H](C(=O)N[C@@H](c3cc(F)c(Cl)cc3F)C3COC3)C[C@H]3C[C@H]32)c1 [Example 695, (1R,3R,5R)-N-((R)-(4-chloro-2,5-difluorophenyl)(3-oxetanyl)methyl)-2-((5-methyl-3-pyridinyl)carbonyl)-2-azabicyclo[3.1.0]hexane-3-carboxamide]	5.5132
CN1CC(C(=O)N[C@@H](c2ccc(C(F)(F)F)cc2F)C2CC2)N(C(=O)c2cccc(S(C)(=O)=O)c2)C1=O (stereo partly drawn) [Example 696, N-((R)-cyclopropyl(2-fluoro-4-(trifluoromethyl)phenyl)methyl)-1-methyl-3-(3-(methylsulfonyl)benzoyl)-2-oxoimidazolidine-4-carboxamide]	5.525
O=C(NCc1ccc(C(F)(F)F)cc1)[C@H]1CCCN1C(=O)[C@H]1CCCN(S(=O)(=O)N2CCC2c2ccc(Cl)cc2)C1 (stereo partly drawn) [Example 697, (2R)-1-((3S)-1-((2-(4-chlorophenyl)azetidin-1-yl)sulfonyl)piperidine-3-carbonyl)-N-(4-(trifluoromethyl)benzyl)pyrrolidine-2-carboxamide]	5.5445
C[C@@H](NC(=O)[C@H]1CCCN1C(=O)[C@H]1CCCN(S(=O)(=O)N2CC(C#N)C2)C1)c1ccc(F)cc1OC(F)F [Example 698, 1-(((3S)-1-((3-cyano-1-azetidinyl)sulfonyl)-3-piperidinyl)carbonyl)-N-((1R)-1-(2-(difluoromethoxy)-4-fluorophenyl)ethyl)-D-prolinamide]	5.5675
O=C(NCc1ccc(C(F)(F)F)cc1)[C@H]1CCCN1C(=O)[C@H]1CCCN(S(=O)(=O)N2CC(Cc3ccc(Cl)cc3)C2)C1 [Example 699, 1-(((3S)-1-((3-(4-chlorobenzyl)-1-azetidinyl)sulfonyl)-3-piperidinyl)carbonyl)-N-(4-(trifluoromethyl)benzyl)-D-prolinamide]	5.5865
COc1ccc(F)cc1CNC(=O)[C@H]1CCCN1C(=O)[C@H]1CCCN(S(=O)(=O)N2CC(C#N)C2)C1 [Example 700, (((3S)-1-((3-cyano-1-azetidinyl)sulfonyl)-3-piperidinyl)carbonyl)-N-(5-fluoro-2-methoxybenzyl)-D-prolinamide]	5.588

Source: US11780826B2 (Amgen Inc., priority 2017, dated 2023)
